Assay results from patent US9051311B2, “Sulfamide sodium channel inhibitors” (AMGEN INC., priority 2012, dated 2015).
Where a name gives a salt, the structure may show the parent alone.

Experiments:
Nav 1.5 = Nav 1.5 (Homo sapiens (Human), UniProt Q14524); experiment: cell-based;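 note: HEK293 cells stably expressing Nav1.5, sodium current at the 26th of 26 pulses to −20 mV (150 ms, 5 Hz) after compound versus before, leak-corrected, 3–8 min exposure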
Procedure: Nav 1.7 and Nav 1.5 Ion Works Quattro (IWQ) In Vitro Assays
293 cells stably transfected with either Nav 1.7 or with Nav 1.5 were recorded in population patch-clamp mode with the IonWorks® Quattro automated electrophysiology system in accordance with the manufacturer's specifications (Molecular Devices, LLC, Sunnyvale, Calif.). Sodium channel currents were measured in response to a train of depolarizations that induced successively greater inactivation.
Cells were held at −110 mV for three seconds (Nav 1.7) or half a second (Nav 1.5) from a holding voltage of −15 mV, then put through a series of 26 pulses of 150 msec duration to −20 mV at a frequency of 5 Hz. Cells were then left unclamped for a period of 3 to 8 minutes while a single concentration of test compound was added. Cells were then reclamped and put through the same voltage protocol. Current at the end of the 26th pulse to −20 mV was subtracted from the peak current evoked by the 26th pulse to −20 mV to correct for leak current. Percent block was calculated for each concentration in duplicate, and IC50 curves were fitted to percent block as a function of concentration.

Nav 1.7 [1] = biological target: T1, Nav 1.7 (Homo sapiens (Human), UniProt Q15858); experiment: Nav 1.7 in vitro PatchExpress (PX) assay, whole cell voltage clamp; assay type: cell-based; conditions: 293 cells stably transfected with human Nav1.7; partially inactivated state (20 to 50% inactivation)
Procedure: Nav 1.7 In Vitro PatchExpress (PX) Assay
293 cells stably transfected with human Nav1.7 were recorded in whole cell voltage clamp mode with the PatchXpress automated electrophysiology system (Molecular Devices, LLC, Sunnyvale, Calif.). Compound effects were measured on a partially inactivated state of the sodium channel. Cells were clamped to a holding potential yielding 20 to 50% inactivation. To elicit sodium current, channels were activated by pulsing to −10 mV for 20 msec. This voltage protocol was repeated at a rate of 0.1 Hz throughout the experiment. A single concentration of test compound was applied to cells for a duration of 3 minutes. Peak sodium current was measured at the end of the compound addition period to determine percent inhibition.

Nav 1.7 [2] = biological target: T1, Nav 1.7; experiment: Nav 1.7 IonWorks Quattro (IWQ) in vitro assay, population patch-clamp; assay type: cell-based; conditions: 293 cells stably transfected with Nav 1.7; block at 26th pulse to −20 mV;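 note: cells held at −110 mV for 3 s, then 26 pulses of 150 ms at 5 Hz, leak-corrected peak current, percent block measured before and after compound, 3–8 min exposure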

Chain of Nav 1.5 (Q14524 whole entry): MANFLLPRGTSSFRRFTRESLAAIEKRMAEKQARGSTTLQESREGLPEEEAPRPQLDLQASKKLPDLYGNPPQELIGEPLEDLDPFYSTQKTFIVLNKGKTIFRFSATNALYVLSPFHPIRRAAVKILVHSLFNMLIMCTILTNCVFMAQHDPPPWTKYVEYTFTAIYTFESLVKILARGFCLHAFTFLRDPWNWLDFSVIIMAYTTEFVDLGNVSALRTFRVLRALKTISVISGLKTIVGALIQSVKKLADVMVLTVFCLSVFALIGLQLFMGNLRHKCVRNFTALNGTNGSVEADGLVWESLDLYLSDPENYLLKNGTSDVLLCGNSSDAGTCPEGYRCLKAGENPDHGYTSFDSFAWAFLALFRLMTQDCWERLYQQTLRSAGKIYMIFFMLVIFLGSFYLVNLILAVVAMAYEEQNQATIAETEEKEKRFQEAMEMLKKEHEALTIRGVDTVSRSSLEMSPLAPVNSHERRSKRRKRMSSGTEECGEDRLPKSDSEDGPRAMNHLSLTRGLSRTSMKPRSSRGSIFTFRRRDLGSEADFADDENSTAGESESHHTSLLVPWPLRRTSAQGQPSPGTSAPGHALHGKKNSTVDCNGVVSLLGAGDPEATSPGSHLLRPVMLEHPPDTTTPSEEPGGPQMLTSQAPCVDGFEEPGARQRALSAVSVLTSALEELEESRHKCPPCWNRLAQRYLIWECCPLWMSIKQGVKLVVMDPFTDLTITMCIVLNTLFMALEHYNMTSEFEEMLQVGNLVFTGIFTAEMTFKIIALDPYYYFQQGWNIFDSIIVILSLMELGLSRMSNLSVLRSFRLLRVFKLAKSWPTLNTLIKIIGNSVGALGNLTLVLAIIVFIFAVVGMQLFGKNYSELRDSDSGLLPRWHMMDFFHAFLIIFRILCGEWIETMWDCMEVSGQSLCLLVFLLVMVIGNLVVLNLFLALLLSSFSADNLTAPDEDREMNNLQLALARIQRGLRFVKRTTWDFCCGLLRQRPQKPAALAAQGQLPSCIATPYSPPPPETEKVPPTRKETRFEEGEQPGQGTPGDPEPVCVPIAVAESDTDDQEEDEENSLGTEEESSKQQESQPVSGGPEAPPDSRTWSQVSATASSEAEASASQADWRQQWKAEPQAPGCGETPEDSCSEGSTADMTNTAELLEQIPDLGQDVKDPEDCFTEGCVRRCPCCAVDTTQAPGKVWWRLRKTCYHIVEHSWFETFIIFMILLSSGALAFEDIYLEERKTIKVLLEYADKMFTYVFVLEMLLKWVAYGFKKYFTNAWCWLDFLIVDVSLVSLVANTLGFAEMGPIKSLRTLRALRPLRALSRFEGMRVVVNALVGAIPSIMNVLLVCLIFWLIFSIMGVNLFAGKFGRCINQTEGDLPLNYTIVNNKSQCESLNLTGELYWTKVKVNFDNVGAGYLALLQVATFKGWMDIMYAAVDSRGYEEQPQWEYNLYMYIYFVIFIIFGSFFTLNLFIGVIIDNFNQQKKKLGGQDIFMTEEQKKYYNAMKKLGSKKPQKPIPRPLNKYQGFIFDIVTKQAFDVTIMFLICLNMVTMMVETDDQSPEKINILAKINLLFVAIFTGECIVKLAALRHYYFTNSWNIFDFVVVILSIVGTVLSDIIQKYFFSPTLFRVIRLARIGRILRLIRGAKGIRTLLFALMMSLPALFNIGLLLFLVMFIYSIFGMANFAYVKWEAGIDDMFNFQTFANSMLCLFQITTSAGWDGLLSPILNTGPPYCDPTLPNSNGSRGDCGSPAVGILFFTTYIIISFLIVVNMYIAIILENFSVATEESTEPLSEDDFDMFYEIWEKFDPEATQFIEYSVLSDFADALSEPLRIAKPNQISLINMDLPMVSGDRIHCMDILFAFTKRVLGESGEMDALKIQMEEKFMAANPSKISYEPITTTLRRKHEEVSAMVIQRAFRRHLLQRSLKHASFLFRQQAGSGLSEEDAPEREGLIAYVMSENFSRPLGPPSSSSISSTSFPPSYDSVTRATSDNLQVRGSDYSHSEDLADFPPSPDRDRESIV
T1 sequence (Q15858 whole entry): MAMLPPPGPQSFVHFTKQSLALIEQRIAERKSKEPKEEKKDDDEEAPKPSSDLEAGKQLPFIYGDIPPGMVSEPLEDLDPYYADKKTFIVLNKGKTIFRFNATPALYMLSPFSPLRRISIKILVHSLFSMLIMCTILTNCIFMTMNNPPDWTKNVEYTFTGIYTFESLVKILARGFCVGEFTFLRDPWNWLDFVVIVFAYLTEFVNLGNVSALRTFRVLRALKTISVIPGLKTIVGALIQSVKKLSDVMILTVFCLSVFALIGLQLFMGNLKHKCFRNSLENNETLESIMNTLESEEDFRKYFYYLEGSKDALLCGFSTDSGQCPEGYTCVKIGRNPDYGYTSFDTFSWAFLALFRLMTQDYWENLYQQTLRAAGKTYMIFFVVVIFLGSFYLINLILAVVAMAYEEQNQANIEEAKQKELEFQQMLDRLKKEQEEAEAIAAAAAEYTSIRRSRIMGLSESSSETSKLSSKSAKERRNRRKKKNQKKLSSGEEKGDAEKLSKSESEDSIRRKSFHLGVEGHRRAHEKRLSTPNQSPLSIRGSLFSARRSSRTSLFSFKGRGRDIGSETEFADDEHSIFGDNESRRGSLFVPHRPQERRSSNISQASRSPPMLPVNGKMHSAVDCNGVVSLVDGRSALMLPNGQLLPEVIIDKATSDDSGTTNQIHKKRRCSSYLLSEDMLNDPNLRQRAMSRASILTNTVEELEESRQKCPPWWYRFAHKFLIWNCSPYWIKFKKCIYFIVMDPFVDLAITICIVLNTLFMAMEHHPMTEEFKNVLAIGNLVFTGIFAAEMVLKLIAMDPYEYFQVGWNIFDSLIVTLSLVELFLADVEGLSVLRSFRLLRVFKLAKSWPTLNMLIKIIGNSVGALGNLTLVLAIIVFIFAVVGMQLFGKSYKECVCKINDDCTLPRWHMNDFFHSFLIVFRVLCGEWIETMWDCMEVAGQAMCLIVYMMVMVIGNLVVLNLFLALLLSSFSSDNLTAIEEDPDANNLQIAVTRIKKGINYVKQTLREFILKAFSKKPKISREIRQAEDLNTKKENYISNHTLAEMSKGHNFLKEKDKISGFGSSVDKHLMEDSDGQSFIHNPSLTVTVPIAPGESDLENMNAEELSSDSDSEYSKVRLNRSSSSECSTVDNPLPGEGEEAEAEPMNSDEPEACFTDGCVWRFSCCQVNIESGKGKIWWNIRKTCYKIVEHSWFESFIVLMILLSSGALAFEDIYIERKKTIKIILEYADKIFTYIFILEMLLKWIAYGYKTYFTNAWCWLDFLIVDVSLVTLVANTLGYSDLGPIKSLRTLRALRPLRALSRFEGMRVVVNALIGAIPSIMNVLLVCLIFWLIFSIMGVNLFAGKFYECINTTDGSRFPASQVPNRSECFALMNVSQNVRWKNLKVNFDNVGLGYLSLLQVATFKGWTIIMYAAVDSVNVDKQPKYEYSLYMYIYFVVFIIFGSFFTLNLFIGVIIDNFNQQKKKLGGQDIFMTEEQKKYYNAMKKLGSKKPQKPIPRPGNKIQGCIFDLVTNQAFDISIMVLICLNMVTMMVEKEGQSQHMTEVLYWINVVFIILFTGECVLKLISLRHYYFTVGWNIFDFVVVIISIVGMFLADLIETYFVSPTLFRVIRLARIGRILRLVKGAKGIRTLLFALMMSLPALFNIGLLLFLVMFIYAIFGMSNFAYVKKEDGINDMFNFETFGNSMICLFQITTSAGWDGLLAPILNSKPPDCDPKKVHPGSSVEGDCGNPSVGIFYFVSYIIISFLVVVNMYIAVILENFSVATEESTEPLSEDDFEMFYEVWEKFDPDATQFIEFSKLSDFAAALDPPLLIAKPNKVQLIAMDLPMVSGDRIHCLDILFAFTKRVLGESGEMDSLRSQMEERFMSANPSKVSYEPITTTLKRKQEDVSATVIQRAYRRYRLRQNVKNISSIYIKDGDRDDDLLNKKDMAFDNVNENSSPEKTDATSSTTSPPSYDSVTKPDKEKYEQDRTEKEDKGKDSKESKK

IC50 (Nav 1.7 [1]) | IC50 (Nav 1.7 [2]) | Structure (SMILES) | IC50 (Nav 1.5)
220 nM | 25.8 nM | O=S(=O)(Nc1ncns1)N1CCc2c(cccc2-c2ccc(C(F)(F)F)cc2-n2ccnc2)C1 [Example 32, 5-(2-(1H-Imidazol-1-yl)-4-(trifluoromethyl)phenyl)-N-(1,2,4-thiadiazol-5-yl)-3,4-dihydroisoquinoline-2(1H)-sulfonamide] | 6680 nM
560 nM | 137 nM | COc1cc(F)ccc1-c1cccc2c1CCN(S(=O)(=O)Nc1ncns1)C2 [Example 30, 5-(4-Fluoro-2-methoxyphenyl)-N-(1,2,4-thiadiazol-5-yl)-3,4-dihydroisoquinoline-2(1H)-sulfonamide] | > 10000 nM
940 nM | 19 nM | COc1cc(C(F)(F)F)ccc1-c1nccc2c1CCN(S(=O)(=O)Nc1ncns1)C2 [Example 46, 5-(2-Methoxy-4-(trifluoromethyl)phenyl)-N-(1,2,4-thiadiazol-5-yl)-3,4-dihydro-2,6-naphthyridine-2(1H)-sulfonamide] | > 10000 nM
190 nM | 351 nM | O=S(=O)(Nc1ncc(F)s1)N1CCc2c(cccc2-c2ccc(C(F)(F)F)cc2C2=CCNCC2)C1 [Example 33, N-(5-Fluorothiazol-2-yl)-5-(2-(1,2,3,6-tetrahydropyridin-4-yl)-4-(trifluoromethyl)phenyl)-3,4-dihydroisoquinoline-2(1H)-sulfonamide hydrochloride] | > 10000 nM
50 nM | 64.5 nM | O=S(=O)(Nc1ncns1)N1CCc2c(cccc2-c2ccc(C(F)(F)F)cc2C2=CCNC2)C1 [Example 34, 5-(2-(2,5-Dihydro-1H-pyrrol-3-yl)-4-(trifluoromethyl)phenyl)-N-(1,2,4-thiadiazol-5-yl)-3,4-dihydroisoquinoline-2(1H)-sulfonamide hydrochloride] | > 10000 nM
6110 nM | 4100 nM | COc1cc(C(F)(F)F)ccc1-c1cccc2c1C(C)CN(S(=O)(=O)Nc1ncns1)C2 (racemic) [Example 48, 5-(2-Methoxy-4-(trifluoromethyl)phenyl)-4-methyl-N-(1,2,4-thiadiazol-5-yl)-3,4-dihydroisoquinoline-2(1H)-sulfonamide] | 7260 nM
260 nM | 135 nM | COc1cc(C(F)(F)F)ccc1-c1cccc2c1CCN(S(=O)(=O)Nc1ncns1)C2 [Example 44, 5-(2-Methoxy-4-(trifluoromethyl)phenyl)-N-(1,2,4-thiadiazol-5-yl)-3,4-dihydroisoquinoline-2(1H)-sulfonamide] | > 10000 nM
1920 nM | 171 nM | Cc1cncn1-c1cc(C(F)(F)F)ccc1-c1cccc2c1CCN(S(=O)(=O)Nc1ncc(F)s1)C2 [Example 43, N-(5-Fluorothiazol-2-yl)-5-(2-(5-methyl-1H-imidazol-1-yl)-4-(trifluoromethyl)phenyl)-3,4-dihydroisoquinoline-2(1H)-sulfonamide] | > 10000 nM
690 nM | 91.7 nM | O=S(=O)(Nc1ncc(F)s1)N1CCc2c(cccc2-c2ccc(C(F)(F)F)cc2-n2ccnc2)C1 [Example 38, 5-(2-(1H-Imidazol-1-yl)-4-(trifluoromethyl)phenyl)-N-(5-fluorothiazol-2-yl)-3,4-dihydroisoquinoline-2(1H)-sulfonamide] | > 10000 nM
370 nM | 62.8 nM | COc1ccc(F)cc1-c1cccc2c1CCN(S(=O)(=O)Nc1ncns1)C2 [Example 29, 5-(5-Fluoro-2-methoxyphenyl)-N-(1,2,4-thiadiazol-5-yl)-3,4-dihydroisoquinoline-2(1H)-sulfonamide] | > 10000 nM
4680 nM | 1890 nM | O=S(=O)(Nc1nccs1)N1CCc2c(cccc2-c2ccc(C(F)(F)F)cc2C2=CCNCC2)C1 [Example 36, 5-(2-(1,2,3,6-Tetrahydropyridin-4-yl)-4-(trifluoromethyl)phenyl)-N-(thiazol-2-yl)-3,4-dihydroisoquinoline-2(1H)-sulfonamide hydrochloride] | > 10000 nM
1050 nM | 87 nM | COc1cc(C(F)(F)F)ccc1-c1ncnc2c1CCN(S(=O)(=O)Nc1nccs1)C2 [Example 59, 4-(2-methoxy-4-(trifluoromethyl)phenyl)-N-(thiazol-2-yl)-5,6-dihydropyrido[3,4-d]pyrimidine-7(8H)-sulfonamide] | > 10000 nM
870 nM | 67.5 nM | COc1cc(C2CC2)ccc1-c1cccc2c1CCN(S(=O)(=O)Nc1ncns1)C2 [Example 45, 5-(4-Cyclopropyl-2-methoxyphenyl)-N-(1,2,4-thiadiazol-5-yl)-3,4-dihydroisoquinoline-2(1H)-sulfonamide] | > 10000 nM
560 nM | 59 nM | COc1cc(C2CC2)ccc1-c1nccc2c1CCN(S(=O)(=O)Nc1ncns1)C2 [Example 47, 5-(4-Cyclopropyl-2-methoxyphenyl)-N-(1,2,4-thiadiazol-5-yl)-3,4-dihydro-2,6-naphthyridine-2(1H)-sulfonamide] | > 10000 nM
670 nM | 125 nM | COc1ccc(OC)c(-c2cccc3c2CCN(S(=O)(=O)Nc2ncns2)C3)c1 [Example 27, 5-(2,5-Dimethoxyphenyl)-N-(1,2,4-thiadiazol-5-yl)-3,4-dihydroisoquinoline-2(1H)-sulfonamide] | > 10000 nM
> 10000 nM | 38900 nM | O=S(=O)(Nc1ccncn1)N1CCc2c(cccc2-c2ccc(C(F)(F)F)cc2Br)C1 [Example 56, 5-(2-Bromo-4-(trifluoromethyl)phenyl)-N-(pyrimidin-4-yl)-3,4-dihydroisoquinoline-2(1H)-sulfonamide] | > 10000 nM

The remaining lines, values behind:

Structure (SMILES) | IC50 (Nav 1.7 [1]) | IC50 (Nav 1.7 [2]) | IC50 (Nav 1.5)
O=S(=O)(Nc1ncns1)N1CCc2c(cccc2-c2ccc(C(F)(F)F)cc2-c2ccncc2)C1 [Example 2, 5-(2-(Pyridin-4-yl)-4-(trifluoromethyl)phenyl)-N-(1,2,4-thiadiazol-5-yl)-3,4-dihydroisoquinoline-2(1H)-sulfonamide] | 640 nM | 217 nM | > 10000 nM
O=S(=O)(Nc1ncns1)N1CCc2c(cccc2-c2ccc(C(F)(F)F)cc2Br)C1 [Example 4, 5-(2-Bromo-4-(trifluoromethyl)phenyl)-N-(1,2,4-thiadiazol-5-yl)-3,4-dihydroisoquinoline-2(1H)-sulfonamide] | 560 nM | 527 nM | > 10000 nM
O=S(=O)(Nc1ncns1)N1CCc2c(cccc2-c2ccc(Cl)cc2Cl)C1 [Example 12, 5-(2,4-Dichlorophenyl)-N-(1,2,4-thiadiazol-5-yl)-3,4-dihydroisoquinoline-2(1H)-sulfonamide] | 1330 nM | 2410 nM | > 10000 nM
O=S(=O)(Nc1ncns1)N1CCc2c(cccc2-c2ccc(C(F)(F)F)cc2)C1 [Example 7, N-(1,2,4-Thiadiazol-5-yl)-5-(4-(trifluoromethyl)phenyl)-3,4-dihydroisoquinoline-2(1H)-sulfonamide] | 5800 nM | 1640 nM | > 10000 nM
COc1ccc(-c2cccc3c2CCN(S(=O)(=O)Nc2ncns2)C3)c(OC)c1 [Example 26, 5-(2,4-Dimethoxyphenyl)-N-(1,2,4-thiadiazol-5-yl)-3,4-dihydroisoquinoline-2(1H)-sulfonamide] | 2200 nM | 1510 nM | > 10000 nM
Cn1cc(-c2cc(C(F)(F)F)ccc2-c2cccc3c2CCN(S(=O)(=O)Nc2ncns2)C3)cn1 [Example 16, 5-(2-(1-Methyl-1H-pyrazol-4-yl)-4-(trifluoromethyl)phenyl)-N-(1,2,4-thiadiazol-5-yl)-3,4-dihydroisoquinoline-2(1H)-sulfonamide] | 5420 nM | 2660 nM | > 10000 nM
O=S(=O)(Nc1ncns1)N1CCc2c(cccc2-c2cccc3ccccc23)C1 [Example 24, 5-(Naphthalen-1-yl)-N-(1,2,4-thiadiazol-5-yl)-3,4-dihydroisoquinoline-2(1H)-sulfonamide] | 4910 nM | 2680 nM | > 10000 nM
O=S(=O)(Nc1ncns1)N1CCc2c(cccc2-c2ccc(C(F)(F)F)cc2-c2cn[nH]c2)C1 [Example 17, 5-(2-(1H-Pyrazol-4-yl)-4-(trifluoromethyl)phenyl)-N-(1,2,4-thiadiazol-5-yl)-3,4-dihydroisoquinoline-2(1H)-sulfonamide] | 350 nM | 157 nM | > 10000 nM
O=S(=O)(Nc1ncns1)N1CCc2c(cccc2-c2ccc(C(F)(F)F)cc2-c2cccnc2)C1 [Example 22, 5-(2-(Pyridin-3-yl)-4-(trifluoromethyl)phenyl)-N-(1,2,4-thiadiazol-5-yl)-3,4-dihydroisoquinoline-2(1H)-sulfonamide] | 470 nM | 80.5 nM | > 10000 nM
O=S(=O)(Nc1ncns1)N1CCc2c(cccc2-c2ccc(C(F)(F)F)cc2-c2cncnc2)C1 [Example 23, 5-(2-(Pyrimidin-5-yl)-4-(trifluoromethyl)phenyl)-N-(1,2,4-thiadiazol-5-yl)-3,4-dihydroisoquinoline-2(1H)-sulfonamide] | 800 nM | 186 nM | > 10000 nM
CN1CC=C(c2cc(C(F)(F)F)ccc2-c2cccc3c2CCN(S(=O)(=O)Nc2ncns2)C3)CC1 [Example 15, 5-(2-(1-Methyl-1,2,3,6-tetrahydropyridin-4-yl)-4-(trifluoromethyl)phenyl)-N-(1,2,4-thiadiazol-5-yl)-3,4-dihydroisoquinoline-2(1H)-sulfonamide] | 90 nM | 78.3 nM | > 10000 nM
